In ChEMBL document CHEMBL3885881, “DrugMatrix”:

Organism: Rattus norvegicus
Experiment: DrugMatrix - Regimen: Daily Repeat
Type: toxicity, organism-based, Sprague-Dawley
Design: regimen Daily Repeat, gender Male, age 6-8 weeks
Conditions: in vivo, po, route oral GAVAGE, vehicle 100 % WATER; for ABSOLUTE BASOPHIL / ABSOLUTE EOSINOPHIL / ABSOLUTE LYMPHOCYTE / ABSOLUTE MONOCYTE / ABSOLUTE SEGMENTED NEUTROPHIL / BASOPHIL / EOSINOPHIL / ERYTHROCYTE COUNT / HEMATOCRIT / HEMOGLOBIN / LEUKOCYTE COUNT / LYMPHOCYTE / MEAN CORPUSCULAR HEMOGLOBIN / MEAN CORPUSCULAR HEMOGLOBIN CONCENTRATION / MEAN CORPUSCULAR VOLUME / MONOCYTE / NEUTROPHIL / NUCLEATED RED BLOOD CELLS / PLATELET COUNT: tissue Blood; for ALANINE AMINOTRANSFERASE / ALBUMIN / ALKALINE PHOSPHATASE / ASPARTATE AMINOTRANSFERASE / BLOOD UREA NITROGEN / CARBON DIOXIDE / CHLORIDE / CHOLESTEROL / CREATINE PHOSPHOKINASE / CREATININE / GLUCOSE / LACTATE DEHYDROGENASE / LIPASE / PHOSPHORUS / SODIUM / TOTAL BILIRUBIN / TOTAL PROTEIN / URIC ACID: tissue Plasma
[1] = 100 mg/kg, 120 h, dose level Low, time 5 day
[2] = 500 mg/kg, 72 h, dose level High, time 3 day
[3] = 500 mg/kg, 120 h, dose level High, time 5 day

With `CCN(CC)C(=S)SSC(=S)N(CC)CC` the “ABSOLUTE BASOPHIL” value [1] was 0 CELLS/uL, the “ABSOLUTE EOSINOPHIL” value [1] was 0 CELLS/uL and the “ABSOLUTE LYMPHOCYTE” value [1] was 13796 CELLS/uL. For the same molecule, the “ABSOLUTE MONOCYTE” value [1] was 155.67 CELLS/uL, the “ABSOLUTE SEGMENTED NEUTROPHIL” value [1] was 1615 CELLS/uL and the BASOPHIL [1] was 0%. The EOSINOPHIL [1] was 0%, the “ERYTHROCYTE COUNT” value [1] was 5.47 x10E6/uL and the HEMATOCRIT [1] was 33.87%. The HEMOGLOBIN [1] was 13.53 G/DL, the “LEUKOCYTE COUNT” value [1] was 15.57 x10E3/uL and the LYMPHOCYTE [1] was 89%. The “MEAN CORPUSCULAR HEMOGLOBIN” value [1] was 24.8 pg, the “MEAN CORPUSCULAR HEMOGLOBIN CONCENTRATION” value [1] was 39.97 G/DL and the “MEAN CORPUSCULAR VOLUME” value [1] was 62 fL. For the same molecule, the MONOCYTE [1] was 1%, the NEUTROPHIL [1] was 10% and the “NUCLEATED RED BLOOD CELLS” value [1] was 0 /100WBC. For the same molecule, the “PLATELET COUNT” value [1] was 1356.33 x10E3/uL, the “ALANINE AMINOTRANSFERASE” value [1] was 42.67 u/L and the ALBUMIN [1] was 4.1 G/DL. The “ALKALINE PHOSPHATASE” value [1] was 265.33 u/L, the “ASPARTATE AMINOTRANSFERASE” value [1] was 70 u/L and the “BLOOD UREA NITROGEN” value [1] was 15.33 mg/dL. The “CARBON DIOXIDE” value [1] was 31.67 mmol/L, the CHLORIDE [1] was 102.67 MEQ/L and the CHOLESTEROL [1] was 83.67 mg/dL. For the same molecule, the “CREATINE PHOSPHOKINASE” value [1] was 216.33 u/L, the CREATININE [1] was 0.15 mg/dL and the GLUCOSE [1] was 123.67 mg/dL. The “LACTATE DEHYDROGENASE” value [1] was 231 u/L, the LIPASE [1] was 11.33 u/L and the PHOSPHORUS [1] was 11.73 mg/dL. The SODIUM [1] was 145.07 MEQ/L, the “TOTAL BILIRUBIN” value [1] was 0.2 mg/dL and the “TOTAL PROTEIN” value [1] was 6 G/DL. For the same molecule, the “URIC ACID” value [1] was 1.37 mg/dL, the “ABSOLUTE BASOPHIL” value [2] was 0 CELLS/uL and the “ABSOLUTE EOSINOPHIL” value [2] was 32 CELLS/uL. For the same molecule, the “ABSOLUTE LYMPHOCYTE” value [2] was 16158.67 CELLS/uL, the “ABSOLUTE MONOCYTE” value [2] was 362.67 CELLS/uL and the “ABSOLUTE SEGMENTED NEUTROPHIL” value [2] was 2246.67 CELLS/uL. For the same molecule, the BASOPHIL [2] was 0%, the EOSINOPHIL [2] was 0.33% and the “ERYTHROCYTE COUNT” value [2] was 5.54 x10E6/uL. The HEMATOCRIT [2] was 34.57%, the HEMOGLOBIN [2] was 13.7 G/DL and the “LEUKOCYTE COUNT” value [2] was 18.8 x10E3/uL. For the same molecule, the LYMPHOCYTE [2] was 85%, the “MEAN CORPUSCULAR HEMOGLOBIN” value [2] was 24.73 pg and the “MEAN CORPUSCULAR HEMOGLOBIN CONCENTRATION” value [2] was 39.63 G/DL. For the same molecule, the “MEAN CORPUSCULAR VOLUME” value [2] was 62.43 fL, the MONOCYTE [2] was 2.33% and the NEUTROPHIL [2] was 12.33%. The “NUCLEATED RED BLOOD CELLS” value [2] was 0 /100WBC, the “PLATELET COUNT” value [2] was 1410.67 x10E3/uL and the “ALANINE AMINOTRANSFERASE” value [2] was 78.33 u/L. The ALBUMIN [2] was 3.87 G/DL, the “ALKALINE PHOSPHATASE” value [2] was 211.67 u/L and the “ASPARTATE AMINOTRANSFERASE” value [2] was 279.33 u/L. The “BLOOD UREA NITROGEN” value [2] was 11.33 mg/dL, the “CARBON DIOXIDE” value [2] was 30.33 mmol/L and the CHLORIDE [2] was 102.33 MEQ/L. The CHOLESTEROL [2] was 124 mg/dL, the “CREATINE PHOSPHOKINASE” value [2] was 747.67 u/L and the CREATININE [2] was 0.15 mg/dL. The GLUCOSE [2] was 121.33 mg/dL, the “LACTATE DEHYDROGENASE” value [2] was 433.33 u/L and the LIPASE [2] was 11.33 u/L. For the same molecule, the PHOSPHORUS [2] was 10.77 mg/dL, the SODIUM [2] was 143.53 MEQ/L and the “TOTAL BILIRUBIN” value [2] was 0.13 mg/dL. The “TOTAL PROTEIN” value [2] was 5.93 G/DL, the “URIC ACID” value [2] was 1.53 mg/dL and the “ABSOLUTE BASOPHIL” value [3] was 0 CELLS/uL. For the same molecule, the “ABSOLUTE EOSINOPHIL” value [3] was 134 CELLS/uL, the “ABSOLUTE LYMPHOCYTE” value [3] was 14987.33 CELLS/uL and the “ABSOLUTE MONOCYTE” value [3] was 0 CELLS/uL. The “ABSOLUTE SEGMENTED NEUTROPHIL” value [3] was 1378.67 CELLS/uL, the BASOPHIL [3] was 0% and the EOSINOPHIL [3] was 0.67%. For the same molecule, the “ERYTHROCYTE COUNT” value [3] was 4.95 x10E6/uL, the HEMATOCRIT [3] was 30.57% and the HEMOGLOBIN [3] was 12.3 G/DL. For the same molecule, the “LEUKOCYTE COUNT” value [3] was 16.5 x10E3/uL, the LYMPHOCYTE [3] was 90.33% and the “MEAN CORPUSCULAR HEMOGLOBIN” value [3] was 24.83 pg. For the same molecule, the “MEAN CORPUSCULAR HEMOGLOBIN CONCENTRATION” value [3] was 40.2 G/DL, the “MEAN CORPUSCULAR VOLUME” value [3] was 61.67 fL and the MONOCYTE [3] was 0%. The NEUTROPHIL [3] was 9%, the “NUCLEATED RED BLOOD CELLS” value [3] was 0 /100WBC and the “PLATELET COUNT” value [3] was 1031.33 x10E3/uL. For the same molecule, the “ALANINE AMINOTRANSFERASE” value [3] was 55 u/L, the ALBUMIN [3] was 3.83 G/DL and the “ALKALINE PHOSPHATASE” value [3] was 254 u/L. The “ASPARTATE AMINOTRANSFERASE” value [3] was 134.33 u/L, the “BLOOD UREA NITROGEN” value [3] was 16.33 mg/dL and the “CARBON DIOXIDE” value [3] was 27 mmol/L. The CHLORIDE [3] was 102.67 MEQ/L, the CHOLESTEROL [3] was 109 mg/dL and the “CREATINE PHOSPHOKINASE” value [3] was 292.67 u/L. For the same molecule, the CREATININE [3] was 0.16 mg/dL, the GLUCOSE [3] was 155.33 mg/dL and the “LACTATE DEHYDROGENASE” value [3] was 217.33 u/L. For the same molecule, the LIPASE [3] was 11.33 u/L, the PHOSPHORUS [3] was 12 mg/dL and the SODIUM [3] was 141.9 MEQ/L. The “TOTAL BILIRUBIN” value [3] was 0.17 mg/dL, the “TOTAL PROTEIN” value [3] was 6 G/DL and the “URIC ACID” value [3] was 1.6 mg/dL.
